For 36 compounds, IC50 results are on record in patent publication US12012467B2, “Small molecule DCN1 inhibitors and therapeutic methods using the same” (THE REGENTS OF THE UNIVERSITY OF MICHIGAN, priority 2017, dated 2024).

Each structure is given as a SMILES string. Square brackets hold non-standard residues; d marks the D form. Peptide text beside a SMILES is read from it. * marks the point of attachment. Ala(6-iPr-benzothiazol-2-yl) = CC(C)c1ccc2nc(C[C@H](N)C(=O)O)sc2c1; Ala(benzothiazol-2-yl) = N[C@@H](Cc1nc2ccccc2s1)C(=O)O; Gly(4-THP) = N[C@H](C(=O)O)C1CCOCC1; Propionyl = CCC(=O)* Where only a bound is given, the exact number is not on record here.

DCN1, sequence (Q96GG9 58-259): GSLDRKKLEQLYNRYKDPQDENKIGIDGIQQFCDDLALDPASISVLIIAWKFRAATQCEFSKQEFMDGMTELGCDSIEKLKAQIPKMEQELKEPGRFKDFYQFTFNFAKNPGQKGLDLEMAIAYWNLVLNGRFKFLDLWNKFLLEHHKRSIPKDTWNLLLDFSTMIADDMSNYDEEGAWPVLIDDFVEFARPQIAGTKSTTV

The first experiment has as its target DCN1 (Homo sapiens (Human), UniProt Q96GG9). Put plainly: Competitive FP binding assay. The note with it: bounds given in μM; read-out: Binding affinity to DCN1 (IC50). As for the experimental part: Competitive FP Binding Assay
The Fluorescence Polarization (FP) competitive binding assays were performed to accurately determine the binding affinities of our DCN1 inhibitors. […] Serial dilutions of proteins were mixed with 46 to a final volume of 200 μl in the assay buffer (100 mM phosphate buffer, pH=6.5, with 0.02% Tween-20 and 2% DMSO). Final probe concentration was 5 nM for both assays. Plates were incubated at room temperature for 30 minutes with gentle shaking to assure equilibrium.
Pure proteins were derived from the same expression and purification protocols. Plasmids were transformed into Rosetta2 cells, the cells were grown in Terrific Broth at 37° C. to an O.D.600>1.0 and induced with 0.4 mM Isopropyl (3-D-1-thiogalactopyranoside overnight at 20° C. The pelleted cells were resuspended in lysis buffer containing 25 mM Tris-HCl, pH 7.5, 200 mM NaCl and protease inhibitors, sonicated and centrifuged at 34,000×g for 45 minutes to remove debris. Cleared lysate was incubated with Ni-NTA resin (Qiagen) prewashed with lysis buffer, for 1 hr at 4° C. The matrix was loaded into a column then washed with 25 mM Tris-HCl, pH 7.5, 200 mM NaCl and 10 mM imidazole. Protein was eluted with 25 mM Tris-HCl, pH 7.5, 200 mM NaCl and 300 mM imidazole, concentrated and applied to a Superdex 75 (GE Healthcare) column pre-equilibrated with 25 mM Tris pH 7.5, 200 mM NaCl and 1 mM DTT. For DCN2-5, the N-terminal His6 tag was removed prior to gel filtration. Tag removal was achieved through incubation with TEV protease during overnight dialysis against 25 mM Tris pH 7.5, 200 mM NaCl and 1 mM DTT and a second Ni-NTA column. DCN2-5 proteins were stored at −80° C. in 1 mg/mL fractions containing 5% glycerol. The uncleaved DCN1 protein was stored at −80° C. without glycerol.
What is called IC50 is the concentration that inhibits the measured activity by half. On to `CCC(=O)N[C@@H](Cc1nc(C)n(-c2ccccc2)n1)C(=O)N[C@H](CN)Cc1ccccc1` [DI-532], for which the IC50 was more than 10 µM.

Regarding `CC(C)CC(C)C(=O)N[C@@H](Cc1nc2ccc(C(C)C)cc2s1)C(=O)NCCN` (stereo partly drawn) [97 & 98], the IC50 was more than 10 µM.

For `CCC(=O)N[C@H](CNC(=O)C1(N)CCC(F)(F)CC1)Cc1nc2ccc(C(C)C)cc2s1` [Example 111], the IC50 is more than 5 µM.

For the compound `CCC(=O)N[C@@H](Cc1ccc(C)cn1)C(=O)N[C@H](C(=O)N[C@@H](CCCCN)C(=O)NC(c1ccccc1)c1ccccc1)[C@@H](C)CC` [Example 135], the IC50 was more than 10 µM.

Consider `CCC(=O)N[C@@H](Cc1nc2ccc(C(C)C)cc2s1)C(=O)N[C@@H](C)CN` [Example 54, (S)—N—((S)-1-aminopropan-2-yl)-3-(6-isopropylbenzo[d]thiazol-2-yl)-2-propionamidopropanamide], for which the IC50 was more than 10 µM.

For the compound `CCC(=O)N[C@H](Cc1nc2ccc(Cl)cc2s1)C(=O)N[C@H](C(=O)N[C@@H](CCCCN)C(=O)N[C@@H]1CCOc2ccccc21)C1CCOCC1` [Example 199], the IC50 is more than 10 µM.

Turning to `CCC(=O)N[C@@H](Cc1nc(C)c(-c2cccc(C#N)c2)s1)C(=O)N[C@H](CN)Cc1ccccc1` [Example 231], the IC50 is more than 10 µM.

For `CCC(=O)N[C@@H](Cc1nc(C)c(-c2ccccn2)s1)C(=O)N[C@H](CN)Cc1ccccc1` [Example 228], the half-maximal inhibitory concentration (IC50) is more than 10 µM.

Still in this experiment, the particulars now being: read-out: Binding affinity to DCN1 (IC50 (nM)).
In the case of `CCC(=O)N[C@@H](Cc1nc2ccc(C(C)C)cc2s1)C(=O)N[C@@H](C)C(=O)N[C@@H](CCCCN)C(=O)N[C@@H](CC(C)C)C(N)=O` [Example 280] (Propionyl-[Ala(6-iPr-benzothiazol-2-yl)]AKL-NH2), the IC50 is 0.0694 µM.

Turning to `CCC(=O)N[C@H](CNC(=O)C1(N)CCCCC1)Cc1nc2ccc(Cl)cc2s1` [Example 119], the IC50 was 0.477 µM.

As to `CCC(=O)N[C@@H](Cc1nc(C)c(-c2cccc(Cl)c2)s1)C(=O)N[C@H](C(=O)N[C@@H](CCCCN)C(=O)N[C@@H]1CCOc2ccccc21)C1CCOCC1` [Example 207], the IC50 came out at 0.139 µM.

As to `CCC(=O)N[C@@H](Cc1nc2ccc(Cl)cc2s1)C(=O)N[C@H](CNC(=O)[C@H](C)CN1CCOCC1)Cc1ccccc1` [Example 226], the IC50 was determined as 0.611 µM.

As for `CCC(=O)N[C@H](CNC(=O)c1ccccn1)Cc1nc2ccc(Cl)cc2s1` [Example 256], the IC50 was found to be 2.14 µM.

As for `CCC(=O)N[C@@H](Cc1nc(C)c(-c2cccc(F)c2)s1)C(=O)N[C@H](CN)Cc1ccccc1` [Example 234], the IC50 worked out at 1.28 µM.

For `CCC(=O)N[C@H](CNC(=O)c1ccccc1)Cc1nc2ccc(Cl)cc2s1` [Example 252], the IC50 worked out at 1.83 µM.

`CCC(=O)N[C@@H](Cc1nc2ccccc2o1)C(=O)N[C@H](C(=O)N[C@@H](CCCCN)C(=O)NC(c1ccccc1)c1ccccc1)[C@@H](C)CC` [Example 154]: the IC50 stood at 0.981 µM.

Take `CCC(=O)N[C@@H](Cc1nc2ccc(Cl)c(Cl)c2s1)C(=O)N[C@H](CN)Cc1ccccc1` [Example 221]: the IC50 was determined as 0.294 µM.

For `CCC(=O)N[C@@H](Cc1nc2ccc(Cl)cc2s1)C(=O)N[C@H](C(=O)N[C@@H](CCCCN)C(=O)NC(c1ccc(F)cc1)c1ccc(F)cc1)C1CCCC1` [Example 158], the IC50 was determined as 0.307 µM.

For `CCC(=O)N[C@@H](Cc1ccc2ccccc2c1)C(=O)N[C@H](C(=O)N[C@@H](CCCCN)C(=O)NC(c1ccccc1)c1ccccc1)C1CCCCC1` [Example 20], the IC50 stood at 0.341 µM.

On to `CCC(=O)N[C@H](CNC(=O)C1(N)CCCCCC1)Cc1nc2ccc(C(C)C)cc2s1` [Example 115], for which the IC50 is 2.39 µM.

Take `CCC(=O)N[C@@H](Cc1nc2cc(Cl)ccc2o1)C(=O)N[C@H](C(=O)N[C@@H](CCCCN)C(=O)NC(c1ccccc1)c1ccccc1)[C@@H](C)CC` [Example 155]: the IC50 is 1.2 µM.

Turning to `CC[C@H](C)[C@H](NC(=O)[C@H](Cc1nc2ccccc2s1)NC(C)=O)C(=O)N[C@@H](CCCCN)C(=O)N[C@@H](CC(C)C)C(N)=O` [Example 2, (S)-2-((2S,3 S)-2-((S)-2-acetamido-3-(benzo[d]thiazol-2-yl)propanamido)-3-methylpentanamido)-6-amino-N—((S)-1-amino-4-methyl-1-oxopentan-2-yl)hexanamide] (Ac-[Ala(benzothiazol-2-yl)]IKL-NH2), the IC50 was found to be 0.322 µM.

For `CCC(=O)N[C@@H](Cc1nc2ccc(C(C)C)cc2s1)C(=O)N[C@H](Cn1cc(CN)nn1)C1CCCCC1` [Example 82], the IC50 was 0.243 µM.

Consider `CCC(=O)N[C@@H](Cc1nc2ccc(Cl)cc2s1)C(=O)N[C@@H](Cc1ccncc1)C(=O)N[C@@H](CCCCN)C(=O)N[C@@H]1CCOc2ccccc21` [Example 203], for which the IC50 was 0.282 µM.

With `CCC(=O)N[C@@H](Cc1nc2ccc(C(C)C)cc2s1)C(=O)N[C@H](CN1CCOCC1)C1CCCCC1` [Example 80, (S)—N—((S)-1-cyclohexyl-2-morpholinoethyl)-3-(6-isopropylbenzo[d]thiazol-2-yl)-2-propionamidopropanamide], the half-inhibitory concentration (IC50) turned out to be 0.157 µM.

For `CCC(=O)N[C@@H](Cc1nc2ccc(C)cc2s1)C(=O)N[C@@H](CC1CCNCC1)C(=O)N[C@@H](CCCCN)C(=O)N[C@@H]1CCOc2ccccc21` [Example 178], the IC50 was 0.596 µM.

As for `CCC(=O)N[C@@H](Cc1nc2ccc(F)cc2s1)C(=O)N[C@H](C(=O)N[C@@H](CCCCN)C(=O)NC(c1ccccc1)c1ccccc1)C1CCCC1` [Example 28], the IC50 stood at 0.413 µM.

Consider `CCC(=O)N[C@@H](Cc1nc2ccc(C(C)C)cc2s1)C(=O)N[C@H](C(=O)N[C@@H](CCCCN)C(=O)N[C@@H](CC(C)C)C(N)=O)C1CCOCC1` [Example 2287] (Propionyl-[Ala(6-iPr-benzothiazol-2-yl)][Gly(4-THP)]KL-NH2), for which the IC50 was determined as 0.28 µM.

In the case of `CCC(=O)N[C@@H](Cc1ccc2ccccc2c1)C(=O)N[C@H](C(=O)N[C@@H](CCCCN)C(=O)N[C@@H]1CCOc2c(Cl)cccc21)C1CCCC1` [Example 166], the IC50 came to 0.193 µM.

As to `CCC(=O)N[C@@H](Cc1nc2ccc(C(C)C)cc2s1)C(=O)N[C@H](CNC(=O)C1CCN(CCF)CC1)C1CCCCC1` [Example 74], the IC50 is 0.112 µM.

As to `CCC(=O)N[C@@H](Cc1nc2ccc(C(C)C)cc2s1)C(=O)N[C@H](CNC(=O)C1CN(C)C1)C1CCCCC1` [Example 69], the IC50 was found to be 0.0716 µM.

`CCC(=O)N[C@@H](Cc1nc2ccc(Cl)cc2s1)C(=O)N[C@H](C(=O)N[C@@H](CC1CCN(C)CC1)C(=O)N[C@@H]1CCOc2ccccc21)C1CCOCC1` [Example 42]: the IC50 worked out at 0.299 µM.

On to `CCC(=O)N[C@@H](Cc1nc2ccc(C(C)C)cc2s1)C(=O)N[C@H](CNC(=O)C1CCN(CCO)CC1)C1CCCCC1` [Example 72], for which the IC50 came to 0.0659 µM.

`CCC(=O)N[C@@H](Cc1ccc2ccccc2c1)C(=O)N[C@@H](CC(C)(C)C)C(=O)N[C@@H](CCCCN)C(=O)NC(c1ccccc1)c1ccccc1` [Example 22]: the IC50 was determined as 0.361 µM.

On to `CCC(=O)N[C@@H](Cc1nc2ccc(Cl)cc2s1)C(=O)N[C@@H](C[C@H]1CC[C@H](CN)CC1)C(=O)N[C@@H](CCCCN)C(=O)N[C@@H]1CCOc2ccccc21` [Example 200], for which the IC50 was 0.203 µM.

As for `CCC(=O)N[C@@H](Cc1nc2ccc(Cl)cc2s1)C(=O)N[C@H](CNC(=O)[C@@H](C)CN1CCOCC1)Cc1ccccc1` [Example 227], the IC50 was found to be 0.471 µM.
